Data as given in patent publication US6696578B2, “Difuropyrone derivatives” (Mount Sinai Hospital, priority 1999, dated 2004).

How the values were obtained:
[1] = test system: SM and MD cartilage cultures (calf metaphalangeal joint chondrocytes); assay: Bovine cartilage cultures treated with interleukin-1β; assay type: cell-based; conditions: 10 ng/ml for 7 days prior to harvesting
Method: Articular cartilage was excised separately from the superficial-middle (SM) or middle-deep (MD) layers of calf metaphalangeal joint using a sterile technique as described by Boyle et al. The cartilage slices were placed in a petri dish containing Ham's F12 and 1% antibiotics in HAT. Chondrocytes were isolated from the SM and MD extracellular matrix by sequential enzymatic digestion using proteinase (0.5%, 1 hour, 37° C.), washed three times with Ham's F12 medium and finally digested with collagenase A (0.1%, overnight, 37° C.). Teflon filter inserts (Millicell CMR, Millipore Corp., Bedford, Mass., USA) were placed into the wells of the 24 well culture dish, coated with type II collagen (0.5 mg/ml of 0.1N acetic acid), dried overnight and UV sterilized for 30 mins. The filter inserts were washed thoroughly with Ham's F12 before plating the cells. The isolated SM and MD chondrocytes were washed extensively and resuspended in Ham's F12 with 5% fetal bovine serum (FBS) and plated on the teflon inserts at a density of 3.0×10^6/cm^2. The cells were supplemented with the medium containing 20% FBS and 100 μg/ml ascorbic acid (added fresh at all times) from day 7 onwards every alternate working day. Some cartilage filter cultures were treated with 10 ng/ml interleukin-1β (Il-1β, human recombinant, Sigma) for 7 days (three changes of the Ham's F12 with 20% FBS and Il-1β) prior to harvesting. The chondrocytes were grown at 37° C., 100% humidity and 5% CO2. The chondrocyte cultures were harvested at fixed time points i.e. day 21, 35, and 56 and stored at −20° C. till the analysis day.
The untreated (controls) and Il-1β-treated SM and MD cartilage cultures were analyzed for cartilage thickness and collagen, proteoglycan, pyridinoline, deoxypyridinoline, and CM-1 content as described herein.

[2] = Rehydrolysis of purified CM-1 with 6N HCl, UV absorption; assay type: physicochemical; conditions: purified CM-1, 6N HCl, 110° C., 48 hrs
Method: An aliquot of purified CM-1 was lyophilized. The lyophilized CM-1 was resuspended in 7 ml of 50% HPLC grade methanol. The UV absorption of CM-1 was measured at 306 nm using a Shimatzu Spectrophotometer. The methanol was evaporated and CM-1 was rehydrolysed for 48 hrs in 6N HCl at 110° C. CM-1 was then lyophilized and resuspended in 7 ml of 50% HPLC grade methanol. The UV absorption of CM-1 was measured.

[3] = Rehydrolysis of purified CM-1 calibrator with 6N HCl for different time points; assay type: physicochemical; conditions: 110° C.
Method: 100 μl of CM-1 calibrator was lyophilized, resuspended in 3.0 ml of 50% methanol and UV absorbance was measured. Five aliquots of 500 μl each were rehydrolyzed with 1000 μl 6N HCl at 110° C. for 3, 6, 12, 24 and 48 hrs. The rehydrolyzed CM-1 was lyophilized and resuspended in 500 μl of 50% methanol and UV absorbance was measured. Methanol was then evaporated and the samples were resuspended in 500 μl of the mobile phase and injected into the HPLC analytical column. The results of rehydrolysis of CM-1 were compared to the unhydrolyzed CM-1 calibrator.

[4] = Storage of CM-1 calibrator at room temperature or in freezer, UV absorbance; assay type: physicochemical; conditions: calibrator in 50% methanol, eight months; for UV absorbance at 306 nm after storage: reference calibrator 0.69 AU
Method: The UV absorbance of CM-1 calibrator (30 ug/ml of 50% methanol) was measured. An aliquot of CM-1 calibrator was kept on the bench top for […], and another aliquot was kept in a storage box in a −70° C. freezer for an equal length of time. The UV absorbance of CM-1 calibrator aliquot was measured after eight months of respective storage procedure.

[5] = Solubility of CM-1 in various solvents; assay type: physicochemical

Substance | glycosaminoglycan (GAG) content ([1]; SM and DM groups) | collagen content ([1]; SM and DM groups, in particular day 56) | cartilage thickness versus untreated controls ([1]; SM and MD groups) | Pyd and Dpyd content ([1]; day 35 and more so day 56) | decrease of UV absorption at 276 nm after rehydrolysis [2] [%] | decrease of UV absorption at 306 nm after rehydrolysis [2] [%] | UV absorption at 276 nm after rehydrolysis ([2]; before treatment 1.00 (278 nm)) [AU] | UV absorption at 306 nm after rehydrolysis ([2]; before treatment 1.884) [AU] | CM-1 yield after rehydrolysis (unhydrolyzed calibrator = 100%) ([3]; 3 hrs (maintained up to 12 hrs)) [%] | CM-1 yield after rehydrolysis (unhydrolyzed calibrator = 100%) ([3]; 24 hrs) [%] | CM-1 yield after rehydrolysis (unhydrolyzed calibrator = 100%) ([3]; 48 hrs) [%] | stability when rehydrolyzed with 6N HCl ([3]; prolonged period) | decrease of UV absorbance at 306 nm after storage ([4]; room temperature) [%] | UV absorbance at 306 nm after storage ([4]; room temperature) [AU] | UV absorbance at 306 nm after storage ([4]; −70° C. freezer) [AU] | solubility ([5]; chloroform) | solubility ([5]; hexane) | solubility ([5]; methanol) | solubility ([5]; water)
Il-1β: interleukin-1β, human recombinant, Sigma; used to treat cartilage filter cultures | decreased | decreased | thinner | decrease |  |  |  |  |  |  |  |  |  |  |  |  |  |  | 
2,6-dimethyl-difuro-8-pyrone [CM-1] |  |  |  |  | 51 | 75 | 0.4865 | 0.469 | 64 | 19 | 4.5 | not stable | 75 | 0.1718 | 0.73 | insoluble | insoluble | highly soluble | highly soluble
